# Publication PMC10778976, “BAY-3827 and SBI-0206965: Potent AMPK Inhibitors That Paradoxically Increase Thr172 Phosphorylation” (International Journal of Molecular Sciences, 2023)
# Where two headings read alike, the source gives them in different places.
# Tests used:
# [1] = tested on: phosphorylation of Thr172 on AMPK-α in U2OS cells; assay: AMPK Thr172 phosphorylation in U2OS cells (Western blot); assay type: cell-based, human
# Experimental: (§1) T-Rex U2OS cells carrying a Flp Recombinase Target (FRT) site were generated as described previously and grown in Dulbecco’s Modified Eagle’s Medium (DMEM) supplemented with 10% (v/v) FBS and 1% (v/v) penicillin/streptomycin.
# (§2) Cells were lysed rapidly in situ on culture plates using ice-cold lysis medium containing phosphatase inhibitors, as described previously.
# (§3) SDS-PAGE was performed using precast NuPAGE Tris-acetate 3–8% gradient polyacrylamide gels in Tris-acetate running buffer when analyzing ACC, GBF1, or Raptor, or NuPAGE Bis-Tris 4–12% gradient polyacrylamide gels in the MOPS buffer system (ThermoFisher Scientific, Waltham, MA, USA) for other proteins (unless stated otherwise). Proteins were transferred to nitrocellulose membranes using the iBlot 2 system (ThermoFisher Scientific). Membranes were enhanced if necessary using SuperSignal Western Blot Enhancer (ThermoFisher Scientific), then blocked for 1 h in Li-Cor Odyssey blocking buffer. The membranes were probed with the appropriate primary antibody ([…]) overnight at 4 °C. Detection was performed using secondary antibody or streptavidin probe (for total ACC) coupled to IR 680 or IR 800 dye, and the membranes were scanned using the LICOR Odyssey IR imager. Protein concentrations were determined by Coomassie Blue binding with bovine serum albumin as a standard. The cellular levels of AMP and ATP were determined via direct perchloric acid extraction from cells, with LC:MS used to estimate the levels of each nucleotide.
# [2] = tested on: Raptor (Ser792) phosphorylation in U2OS cells; assay: Raptor phosphorylation in U2OS cells (Western blot); assay type: cell-based, human; conditions: 30 min inhibitor then 30 min MK-8722 (300 nM), read-out: IC50, inhibition of MK-8722-stimulated Raptor phosphorylation
# Experimental: as §1, §2, §3
# [3] = tested on: endogenous AMPK from HEK-293 cells; assay: Protection of immunoprecipitated AMPK against inactivation by PP2Cα (PPM1A); assay type: biochemical, human; conditions: immunoprecipitated AMPK, 10 min 30 °C; read-out: half-maximal effect on protection against inactivation by PPM1A
# Experimental: AMPK was immunoprecipitated from HEK-293 cell lysate (2.5 mg of lysate protein) using a mixture of anti-α1 and -α2 antibodies. After extensive washing as in Section 4.5, aliquots equivalent to 80 µg of lysate protein were incubated in a shaking incubator at 30 °C for 10 min in Hepes buffer (50 mM Na Hepes, pH 7.4, 150 mM NaCl, 1 mM dithiothreitol, 0.02% (w/v) Brij-35) with 50 mM MgCl2 and sufficient PPM1A to yield about 80% inactivation, in the presence or absence of 200 µM AMP or the indicated concentration of BAY-3827 or SBI-0206965 (total volume 50 µL). The reaction was terminated by adding 1 mL of IP buffer (50 mM Tris/HCl, pH 7.4 at room temperature, 150 mM NaCl, 1 mM EDTA, 1 mM EGTA, 5 mM Na pyrophosphate, 50 mM NaF, 1 mM dithiothreitol, 0.1% (v/v) Triton X-100) and, after additional washing in the same buffer and a final wash into Hepes buffer, AMPK activity was determined using kinase assays as above.
# [4] = tested on: acetyl-CoA carboxylase (ACC, Ser80) phosphorylation in U2OS cells; assay: ACC phosphorylation in U2OS cells (Western blot); assay type: cell-based, human; conditions: 30 min inhibitor then 30 min MK-8722 (300 nM), read-out: IC50, inhibition of MK-8722-stimulated ACC phosphorylation
# Experimental: as §1, §2, §3
# [5] = tested on: endogenous AMPK from HEK-293 cells; assay: Activation of dephosphorylated immunoprecipitated AMPK by the LKB1 complex; assay type: biochemical, human; conditions: increasing concentrations; SBI-0206965 effect reversed above 1 µM
# Experimental: AMPK was immunoprecipitated from HEK-293 cell lysate (2.5 mg protein) using a mixture of anti-α1 and -α2 antibodies. After extensive washing, it was incubated in a shaking incubator at 30 °C for 20 min in Hepes buffer with 50 mM MgCl2 and sufficient PPM1A to yield about 90% inactivation (total volume of 250 µL). The reaction was terminated by adding 1 mL of IP buffer and, after additional washing in the same buffer, aliquots equivalent to 80 µg of lysate protein were incubated in a shaking incubator at 30 °C for 10 min in Hepes buffer with […] and 5 mM MgCl2, with or without a limiting amount of LKB1:STRADα:MO25α complex (0.5 µg) in the presence or absence of 200 µM AMP or the indicated concentration of BAY-3827 or SBI-0206965 (total volume of 50 µL). The reaction was terminated by adding 1 mL of IP buffer and, after additional washing in the same buffer and a final wash into Hepes buffer, AMPK activity was determined using kinase assays as above.
# PPM1A = tested on: T1, PPM1A; assay: PPM1A activity using p-nitrophenyl phosphate; assay type: biochemical; conditions: p-nitrophenyl phosphate substrate, concentrations as in Figure 5A
# T1 construct: made in house
# Experimental: To directly determine LKB1 activity, kinase assays were performed in the presence or absence of the indicated concentration of BAY-3827 or SBI-0206965 as for AMPK, except that LKBtide was used as a peptide substrate. PPM1A activity was determined using p-nitrophenyl phosphate (pNPP) as a substrate. PPM1A (5 µg) was incubated with 50 mM pNPP and 50 mM MgCl2 in Hepes buffer in the presence of a vehicle or the indicated concentration of BAY-3827 or SBI-0206965 for 10 min at 30 °C. The reaction was quenched by the addition of 1 mL of 0.5 M EDTA and the amount of product, p-nitrophenol, determined by measuring absorbance at 405 nm.
SMILES,"increase of Thr172 phosphorylation, maximal effect at low concentrations ([1]; 3–30 µM)","increase of Thr172 phosphorylation at high concentrations ([1]; 100–300 µM, not saturated) [fold]",IC50 [2] [nM],EC50 [3] [nM],IC50 [4] [nM],effect on activation of AMPK by LKB1 [5],effect on activity of PPM1A (PPM1A),"EC50 ([1]; Homo sapiens, read-out: EC50, half-maximal increase of Thr172 phosphorylation) [nM]",maximum increase of Thr172 phosphorylation ([1]; pThr172:total AMPK relative to control) [fold],"IC50 ([2]; Homo sapiens, 0.5 h) [nM]","IC50 ([4]; Homo sapiens, U2OS, 0.5 h) [nM]"
CNC(=O)c1ccccc1Oc1nc(Nc2cc(OC)c(OC)c(OC)c2)ncc1Br [SBI-0206965],about 2 fold,4,9200,290,42000,progressively promoted activation by LKB1,Lack of effect,,,,
CCc1ccccc1C(=O)Nc1n[nH]c2c(C)c(F)c(C3C(C#N)=C(C)N(C)C(C)=C3C#N)cc12 [BAY-3827],,,,7,270,little or no effect,Lack of effect,164,9.7,113,260
